Data taken from PubChem BioAssay AID2060884 (Molecular Pharmacology Branch, DTP, NCI, 2025).
pIC50: −log10 of the molar value.

System: NCI-H929 complex spheroids, viability % test/control
Test: Anticancer human tumor NCI-H929 cell line growth inhibition [RAS];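 further: compound exposure lasted seven days before viability was read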;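 on viability, T/C: 100% = DMSO vehicle control viability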
Details: for pIC50: curve of first compound; for viability, T/C: stronger effect = lower value; active means viability on the fitted dose curve at most 10% of control; inactive means the rest
Procedure, shortened: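 Tumour cells grown as complex spheroids with HUVEC endothelial cells and mesenchymal stem cells, treated with RAS pathway inhibitor combinations. Each agent spans half-log steps from near clinical Cmax, or 10 microM where Cmax is unknown.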

[1] = second compound 0.000949 µM, first compound 0.0316 µM
[2] = second compound 0.000949 µM, first compound 0.1 µM
[3] = second compound 0.000949 µM, first compound 0.316 µM
[4] = second compound 0.000949 µM, first compound 1 µM
[5] = second compound 0.000949 µM, first compound 3.16 µM
[6] = second compound 0.000949 µM, first compound 10 µM
[7] = second compound 0.003 µM, first compound 0.0316 µM
[8] = second compound 0.003 µM, first compound 0.1 µM
[9] = second compound 0.003 µM, first compound 0.316 µM
[10] = second compound 0.003 µM, first compound 1 µM
[11] = second compound 0.003 µM, first compound 3.16 µM
[12] = second compound 0.003 µM, first compound 10 µM
[13] = second compound 0.00949 µM, first compound 0.0316 µM
[14] = second compound 0.00949 µM, first compound 0.1 µM
[15] = second compound 0.00949 µM, first compound 0.316 µM
[16] = second compound 0.00949 µM, first compound 1 µM
[17] = second compound 0.00949 µM, first compound 3.16 µM
[18] = second compound 0.00949 µM, first compound 10 µM
[19] = second compound 0.03 µM, first compound 0.0316 µM
[20] = second compound 0.03 µM, first compound 0.1 µM
[21] = second compound 0.03 µM, first compound 0.316 µM
[22] = second compound 0.03 µM, first compound 1 µM
[23] = second compound 0.03 µM, first compound 3.16 µM
[24] = second compound 0.03 µM, first compound 10 µM
[25] = second compound 0.0949 µM, first compound 0.0316 µM
[26] = second compound 0.0949 µM, first compound 0.1 µM
[27] = second compound 0.0949 µM, first compound 0.316 µM
[28] = second compound 0.0949 µM, first compound 1 µM
[29] = second compound 0.0949 µM, first compound 3.16 µM
[30] = second compound 0.0949 µM, first compound 10 µM
[31] = second compound 0.3 µM, first compound 0.0316 µM
[32] = second compound 0.3 µM, first compound 0.1 µM
[33] = second compound 0.3 µM, first compound 0.316 µM
[34] = second compound 0.3 µM, first compound 1 µM
[35] = second compound 0.3 µM, first compound 3.16 µM
[36] = second compound 0.3 µM, first compound 10 µM

CC(C)NCC(C(=O)N1CCN(c2ncnc3c2C(C)CC3O)CC1)c1ccc(Cl)cc1 (centres undefined) + CCn1c(-c2cc(N3CCN(C)CC3)cnc2C(C)OC)c2c3cc(ccc31)-c1csc(n1)CC(NC(=O)C1CC1C)C(=O)N1CCCC(N1)C(=O)OCC(C)(C)C2
> 7.50: pIC50 (second compound 0.03 µM) | pIC50 (second compound 0.0949 µM) | pIC50 (second compound 0.3 µM)
5.77: pIC50 (second compound 0.003 µM)
active: viability, T/C [6] 2.39% | viability, T/C [12] 1.27% | viability, T/C [17] 1.11% | viability, T/C [18] 0.51% | viability, T/C [21] 5.92% | viability, T/C [22] 1.07% | viability, T/C [23] 0.47% | viability, T/C [24] 0.39% | viability, T/C [25] 5.19% | viability, T/C [26] 2.73% | viability, T/C [27] 0.72% | viability, T/C [28] 0.7% | viability, T/C [29] 0.37% | viability, T/C [30] 0.17% | viability, T/C [31] 2.88% | viability, T/C [32] 1.14% | viability, T/C [33] 0.58% | viability, T/C [34] 0.57% | viability, T/C [35] 0.75% | viability, T/C [36] 0.24%
5.76: pIC50 (second compound 0.000949 µM)
6.19: pIC50 (second compound 0.00949 µM)
inactive: viability, T/C [1] 102% | viability, T/C [2] 97.5% | viability, T/C [3] 105% | viability, T/C [4] 80.3% | viability, T/C [5] 16% | viability, T/C [7] 97.7% | viability, T/C [8] 102% | viability, T/C [9] 106% | viability, T/C [10] 82.3% | viability, T/C [11] 11.1% | viability, T/C [13] 109% | viability, T/C [14] 115% | viability, T/C [15] 109% | viability, T/C [16] 15.4% | viability, T/C [19] 42.5% | viability, T/C [20] 23.2%

CC(Nc1ccc2c(c1)OCCn1cc(N3C(=O)OCC3C(F)F)nc1-2)C(N)=O (centres undefined) + CCn1c(-c2cc(N3CCN(C)CC3)cnc2C(C)OC)c2c3cc(ccc31)-c1csc(n1)CC(NC(=O)C1CC1C)C(=O)N1CCCC(N1)C(=O)OCC(C)(C)C2
inactive: viability, T/C [1] 100% | viability, T/C [2] 97.5% | viability, T/C [3] 109% | viability, T/C [4] 97.9% | viability, T/C [5] 86.2% | viability, T/C [6] 20.9% | viability, T/C [7] 94.3% | viability, T/C [8] 103% | viability, T/C [9] 107% | viability, T/C [10] 102% | viability, T/C [11] 78.5% | viability, T/C [12] 14.2% | viability, T/C [13] 110% | viability, T/C [14] 114% | viability, T/C [15] 102% | viability, T/C [16] 61.2% | viability, T/C [17] 24.8% | viability, T/C [19] 32.1% | viability, T/C [20] 9.9%
> 7.50: pIC50 (second compound 0.03 µM) | pIC50 (second compound 0.0949 µM) | pIC50 (second compound 0.3 µM)
5.83: pIC50 (second compound 0.00949 µM)
5.28: pIC50 (second compound 0.003 µM)
active: viability, T/C [18] 2.76% | viability, T/C [21] 4.54% | viability, T/C [22] 2.25% | viability, T/C [23] 0.96% | viability, T/C [24] 0.2% | viability, T/C [25] 1.56% | viability, T/C [26] 0.81% | viability, T/C [27] 0.54% | viability, T/C [28] 0.47% | viability, T/C [29] 0.37% | viability, T/C [30] 0.1% | viability, T/C [31] 0.89% | viability, T/C [32] 0.73% | viability, T/C [33] 0.48% | viability, T/C [34] 0.29% | viability, T/C [35] 0.33% | viability, T/C [36] 0.12%
5.22: pIC50 (second compound 0.000949 µM)
